As a reminder, the EC90 is the concentration at which the effect reaches the 90% level.

In one data set the test system is MERS-CoV (EMC strain). The data set is described as follows: microbe, parasite or virus in culture. The class given is cell-based.
Data set [1] has as its system measles virus (CC strain). The data set is described as follows: microbe, parasite or virus in culture. The class given is cell-based.
For data set [2], the system named is tacaribe virus (TRVL11573 strain). The data set is described as follows: microbe, parasite or virus in culture. The class given is cell-based. The note with it: read-out: Tacaribe virus EC50 TRVL 11573 strain.
Data set [3] has as its system yellow fever virus (YFV 17D strain). The data set can be described thus: microbe, parasite or virus in culture. The class given is cell-based. The settings on record: read-out: Yellow fever virus EC50 YFV 17D strain.
Data set [4] has as its system influenza A (H1N1) virus (California/07/2009 strain). The data set can be described thus: microbe, parasite or virus in culture. The class given is cell-based.
The test system of data set [5] is human norovirus genogroup I NoV (Norwalk virus replicon) in HG23 cells. The data set can be described thus: Human norovirus antiviral assay, qRT PCR in HG23 NoV replicon cells. The class given is cell-based. The settings on record: for EC50: HG23 Nov replicon cells, qRT PCR intracellular RNA, read-out: EC50 human norovirus. (In general: A replicon is a self-replicating genome or part of one, used to study replication in cells.)

Data set [6] has as its system chikungunya virus (S27 strain). The data set is described as follows: microbe, parasite or virus in culture. The class given is cell-based. The settings on record: read-out: EC50 chikungunya virus.
Data set [7] relates to enterovirus-71 (Tainan/4643/98 strain). The data set is described as follows: organism not typed. The class given is cell-based.
The test system of data set [8] is tacaribe virus (TRVL11573 strain). The class given is cell-based.
A further data set deals with HG23 Nov replicon cells. The data set is described as follows: Cytotoxicity in the human norovirus replicon assay (HG23 cells). The settings on record: read-out: CC50 human norovirus assay.
Data set [9] relates to dengue virus 2 (New Guinea C strain). The data set can be described thus: microbe, parasite or virus in culture. The class given is cell-based.
The subject of data set [10] is enterovirus-71 (Tainan/4643/98 strain). The data set is described as follows: Secondary assay (virus yield reduction / neutral red CPE) against enterovirus-71 in Vero 76 cells. The class given is cell-based.
The nature of data set [11]: in vitro. The settings on record: African green monkey.
Data set [12] in a line: in vitro. The note with it: African green monkey, Tacaribe virus CC50 Vero.
Data set [13] is described as follows: in vitro. The settings on record: human.
The nature of data set [14]: in vitro. The settings on record: dog, CC50 MDCK.
A short description of data set [15]: Cytotoxicity in the human norovirus replicon assay (HG23 cells). The note with it: human, HG23 Nov replicon cells.
For another data set, the system named is Influenza A (H3N2). The data set is described as follows: microbe, parasite or virus in culture. The class given is cell-based. The settings on record: H3N2, MDCK, read-out: EC50 Influenza A (H3N2).
The next data set deals with Influenza A (H5N1). The data set can be described thus: microbe, parasite or virus in culture. The class given is cell-based. The settings on record: H5N1, MDCK, read-out: EC50 Influenza A (H5N1).
The next data set has as its system Influenza B. The data set is described as follows: microbe, parasite or virus in culture. The note with it: MDCK, read-out: EC50 Influenza B. The class given is cell-based.
A further data set deals with HCV. The note with it: literature; read-out: EC50 against HCV (RNA replication); cited from earlier work.
Setting [16] is: read-out: MERS-CoV EC50 EMC strain.
Setting [17] is: read-out: Measles EC50 CC strain.
Where [18] appears, read: read-out: EC50 California/07/2009 strain.
The mark [19] stands for this setting: read-out: MERS-CoV CC50 Vero 76, Neutral Red, MERS-CoV screen.
[20] abbreviates: read-out: MERS-CoV CC50 Vero 76, Visual, MERS-CoV screen.
[21] abbreviates: read-out: Yellow fever virus CC50 Huh7, Neutral Red, YFV screen.
The mark [22] stands for this setting: read-out: Yellow fever virus CC50 Huh7, Visual, YFV screen.
Setting [23] is: Measles morbillivirus, Vero 76, read-out: Measles EC50 CC strain.
Setting [24] is: Mammarenavirus tacaribeense, Vero.
[25] abbreviates: Influenza A virus, H1N1, MDCK, read-out: EC50 California/07/2009 strain.
Where [26] appears, read: Vero 76, read-out: EC50 enterovirus-71.

“And” between values parts separate entries of the source, which are not always exact repeats. Equal values may be shown once. “Also recorded” adds a separate entry of the source. Read-outs that look alike come from different tables or passages of the source.

`OC[C@H]1O[C@@H](n2ccc3c(C#CC4CC4)ncnc32)[C@H](O)[C@@H]1O` [3.1c, 6-Cydopropylethynyl-9-β-D-ribofuranosyl-7-deazapurine]: the “activity against MERS-CoV in words” value with MERS-CoV (EMC strain) is listed as “moderately active with low selectivity index”. Besides, the EC50 with MERS-CoV (EMC strain) (setting [16]) was 10 µM and 6.7 µM; in data set [1] (setting [17]) it was 0.97 µM and 1 µM; in data set [2] it was 0.68 µM; in data set [3], 0.86 µM and 1.8 µM; in data set [4] (setting [18]), 11 µM and 8.2 µM; in data set [5] it was 0.13 µM and 0.126 µM. Also, the EC50 in data set [6] was above 100 µM; in data set [7] (read-out: EC50 enterovirus-71), above 100 µM; in data set [8], 1.1 µM. Besides, the “activity against influenza A (H1N1) in words” value in data set [4] is reported as “moderate activity”. In addition, in data set [7], the “activity against enterovirus-71 in words” value is “inactive”. The compound further came in with a 90% effect concentration (EC90) in data set [8] of 0.65 µM. The CC50 is above 100 µM in the data set with Vero 76 cells; above 100 µM with Vero 76 cells (setting [19]); 100 µM with Vero 76 cells (setting [20]); 60 µM with Huh7 cells (setting [21]); 32 µM in the data set with Huh7 cells (setting [22]); above 100 µM in the data set on MDCK cells. Also, in the data set on HG23 Nov replicon cells, the CC50 was found to be 17.5 µM.

With `CCCC#Cc1ncnc2c1ccn2[C@@H]1O[C@H](CO)[C@@H](O)[C@H]1O` [3.1f, 6-(Pent-1-yn-1-yl)-9-β-D-ribofuranosyl-7-deazapurine], the EC50 in [1] (setting [23]) came out at 3.2 µM; in data set [1] (setting [17]), 3.7 µM; in data set [2] (setting [24]), 1.6 µM; in data set [2], 1.8 µM; in data set [4] (setting [25]) it was 2.2 µM; in data set [4] (setting [18]), 2.3 µM. The EC50 came to 0.002 µM in data set [5] (Norwalk virus); 0.75 µM in data set [9] (Dengue virus, Huh-7, read-out: EC50 dengue virus 2); 0.96 µM in data set [9] (read-out: EC50 dengue virus 2); 2.2 µM in [7] (setting [26]); 1.6 µM in data set [7] (read-out: EC50 enterovirus-71); 29 µM in data set [10] (Vero 76, Neutral Red (Cytopathic effect/Toxicity)). The “activity against human norovirus in words” value in [5] is “low nanomolar activity and high selectivity”. Further, the EC90 in data set [10] (Vero 76, Visual (Virus yield reduction)) was 17 µM. The CC50 was determined as 110 µM with Vero 76 cells (setting [19]); 19 µM with Vero 76 cells (setting [20]); 9.9 µM with Vero cells (African green monkey); 11 µM in the data set on Huh7 cells (human); 31 µM in the data set with Huh7 cells (setting [21]); 5.1 µM in the data set on MDCK cells (dog). For the same compound, the CC50 was above 100 µM in “in vitro [11]” (CC50); 63 µM in “in vitro [11]” (Measles CC50 Vero 76); 10 µM in “in vitro [12]”; 12 µM in “in vitro [13]” (CC50); 28 µM in the data set “in vitro [13]” (Yellow fever virus CC50 Huh7); 9.1 µM in the data set “in vitro [14]”. This compound also returned a CC50 at 3 days in [15] of 38.7 µM.

In the case of `OC[C@H]1O[C@@H](n2ccc3c(C#CC4CCCC4)ncnc32)[C@H](O)[C@@H]1O` [3.1g, 6-(Cydopentylethynyl)-9-β-D-ribofuranosyl-7-deazapurine], the “activity against MERS-CoV in words” value in the data set with MERS-CoV (EMC strain) was “moderately active with low selectivity index”. Besides, the EC50 in data set [1] (setting [17]) was 3.3 µM and 2.8 µM; in data set [2], 0.37 µM; in data set [3], 0.86 µM and 1.3 µM; in data set [4] (setting [18]), above 8.4 µM; in data set [5], 0.438 µM; in data set [6], above 100 µM. For the same compound, the results for the EC50 in data set [7] (read-out: EC50 enterovirus-71) and in data set [10] (Neutral Red (Cytopathic effect/Toxicity)) were 1.5 µM and 3.8 µM, respectively. Besides, in data set [10] (Visual (Virus yield reduction)), the 90% effect level (EC90) was put at 1.1 µM. Further, the CC50 in the data set with Vero 76 cells (setting [19]) is 49 µM; with Vero 76 cells (setting [20]), 100 µM; with Vero cells it was 34 µM; in the data set with Huh7 cells (setting [21]) it was 6 µM; in the data set with Huh7 cells (setting [22]), 8.6 µM; in the data set with HG23 Nov replicon cells, 25.8 µM.

Take `CCc1ncnc2c1c(F)cn2[C@@H]1O[C@H](CO)[C@@H](O)[C@H]1O` [3.1r, 6-Ethyl-7-Fluoro-9-β-D-ribofuranosyl-7-deazapurine]: in the data set with MERS-CoV (EMC strain), the “activity against MERS-CoV in words” value is reported as “moderately active with low selectivity index; also recorded: low micromolar to submicromolar activity”. In addition, the EC50 in the data set on MERS-CoV (EMC strain) (Middle East respiratory syndrome-related coronavirus, Vero 76, read-out: MERS-CoV EC50 EMC strain) was 3 µM; with MERS-CoV (EMC strain) (setting [16]), 2.5 µM; in [1] (setting [23]), 7.7 µM; in data set [1] (setting [17]), 9.6 µM; in data set [2] (setting [24]), above 63 µM; in [2], 43 µM. For the same compound, the EC50 was 0.34 µM in data set [4] (setting [25]); 0.34 µM in data set [4] (Influenza A virus, H1N1, MDCK, read-out: EC50 Influenza A (H1N1)); 0.32 µM in data set [4] (setting [18]); below 0.1 µM in the data set on Influenza A (H3N2); below 0.1 µM in the data set with Influenza A (H5N1); below 0.1 µM in the data set with Influenza B. For the same compound, in [7] (setting [26]), the EC50 is above 100 µM. Moreover, in [9], the “activity against dengue virus 2 in words” value is reported as “low micromolar to submicromolar activity”. Besides, the CC50 is 42 µM with Vero 76 cells (African green monkey); 46 µM with Vero 76 cells (setting [19]); 100 µM with Vero 76 cells (setting [20]); 59 µM in the data set with Vero cells (African green monkey); 1.9 µM with Huh7 cells (setting [21]); above 100 µM with Huh7 cells (setting [22]). Further, the CC50 with MDCK cells (dog) was 43 µM; in “in vitro [11]” (CC50), above 100 µM; in “in vitro [11]” (Measles CC50 Vero 76) it was 32 µM; in the data set “in vitro [12]” it was 63 µM; in the data set “in vitro [14]”, 32 µM.

As to `C[C@@]1(O)[C@H](O)[C@@H](CO)O[C@H]1n1ccc2c(N)ncnc21` [7-Deaza-2′-C-methyladenosine], the EC50 in the data set with HCV is 0.25 µM.

Take `C[C@@]1(O)[C@H](O)[C@@H](CO)O[C@H]1n1cc(F)c2c(N)ncnc21` [7-fluoro-7-deaza-2′-C-methyladenosine]: the EC50 in the data set with HCV is 0.07 µM.

The values are drawn from patent US20250144125A1 (priority 2021, published 2025).
